Reference: the supplement of paper PMC10307832

How the values were obtained:
Experiment in all cases: relative viability (nuclei count vs DMSO), 5 days (fraction); higher = more cells survive
[1] = compound: C[C@]1(O)C[C@@H](c2nc(-c3ccc4ccc(-c5ccccc5)nc4c3)c3c(N)nccn32)C1 [Linsitinib] + Cc1nc(NC(=O)N2CCC[C@H]2C(N)=O)sc1-c1ccnc(C(C)(C)C(F)(F)F)c1 [Alpelisib] (partner 2 µM)
Summary of the method: (§1)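 Lung cancer cell lines were seeded in 1536-well plates and dosed by pin tool the next day, with either a single drug or a fixed anchor-drug dose combined with five library-drug doses (not always all listed) spaced in √10 steps. Five days later, one step fixed the cells and stained their nuclei (final 0.05% Triton X-100, 1% formaldehyde, 1 ug/ml Hoechst), and nuclei were counted on 4× images. Relative viability is the nuclei count in treated wells divided by the count in vehicle wells, and each value is the median of duplicate plates.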

[2] = compound: Cc1ccc(C(=O)N(CCCN)[C@@H](c2nc3cc(Cl)ccc3c(=O)n2Cc2ccccc2)C(C)C)cc1 [Ispinesib] + O=C(c1cc(Cc2n[nH]c(=O)c3ccccc23)ccc1F)N1CCN(C(=O)C2CC2)CC1 [Olaparib] (partner 8 µM)
Summary of the method: as §1

[3] = compound: Cc1ccc(C(=O)N(CCCN)[C@@H](c2nc3cc(Cl)ccc3c(=O)n2Cc2ccccc2)C(C)C)cc1 [Ispinesib] + O=C(CCCCCCC(=O)Nc1ccccc1)NO [Vorinostat] (partner 1 µM)
Summary of the method: as §1

[4] = compound: C[C@]1(O)C[C@@H](c2nc(-c3ccc4ccc(-c5ccccc5)nc4c3)c3c(N)nccn32)C1 [Linsitinib] + CS(=O)(=O)N1CCN(Cc2cc3nc(-c4cccc5[nH]ncc45)nc(N4CCOCC4)c3s2)CC1 [Pictilisib] (partner 1 µM)
Summary of the method: as §1

UMC-11
relative viability ([1]; first compound 0.01 µM): 0.958 | relative viability ([1]; first compound 0.03162 µM): 0.951 | relative viability ([1]; first compound 0.1 µM): 0.961 | relative viability ([1]; first compound 1 µM): 0.969 | relative viability ([2]; first compound 0.001 µM): 0.693 | relative viability ([2]; first compound 0.003162 µM): 0.389 | relative viability ([2]; first compound 0.01 µM): 0.345 | relative viability ([2]; first compound 0.03162 µM): 0.325 | relative viability ([2]; first compound 0.1 µM): 0.272 | relative viability ([3]; first compound 0.001 µM): 0.308 | relative viability ([3]; first compound 0.003162 µM): 0.459 | relative viability ([3]; first compound 0.01 µM): 0.327 | relative viability ([3]; first compound 0.03162 µM): 0.281 | relative viability ([3]; first compound 0.1 µM): 0.319 | relative viability ([4]; first compound 0.01 µM): 0.786 | relative viability ([4]; first compound 0.03162 µM): 0.735 | relative viability ([4]; first compound 0.1 µM): 0.834 | relative viability ([4]; first compound 1 µM): 0.691
